Holding throughout (test): AK assay 384-well format, Prestwick library screening
The test system of one test is E. faecium. The format is cell-based, Enterococcus faecium. The following applies: 50 μM final drug concentration; for fold induction at 50 µM: Enterococcus faecium, 3 h.
The subject of test [1] is S. aureus strain USA300-0114. Type of test: cell-based, Staphylococcus aureus. Conditions: 50 μM final drug concentration; for fold induction at 50 µM: Staphylococcus aureus, USA300, 3 h.
Another test concerns K. pneumoniae. The format is cell-based, Klebsiella pneumoniae. The following applies: 50 μM final drug concentration; for fold induction at 50 µM: Klebsiella pneumoniae, 3 h.
Test [2] has as its system A. baumannii strain 98-37-09. Type of test: cell-based, Acinetobacter baumannii. Conditions: 50 μM final drug concentration; for fold induction at 50 µM: Acinetobacter baumannii, 983709, 3 h.
For a further test, the system named is P. aeruginosa. Type of test: cell-based, Pseudomonas aeruginosa. Conditions: 50 μM final drug concentration; for fold induction at 50 µM: Pseudomonas aeruginosa, 3 h.
Another test relates to E. cloacae. Type of test: cell-based, Enterobacter cloacae. Conditions: 50 μM final drug concentration; for fold induction at 50 µM: Enterobacter cloacae, 3 h.
The next test deals with E. coli. Type of test: cell-based, Escherichia coli. Conditions: 50 μM final drug concentration; for fold induction at 50 µM: Escherichia coli, 3 h.
The mark [3] stands for this setting: 384-well format, cutoff for positive-scoring molecules 3-fold increase, read-out: AK-based Prestwick Library Screening Results, E. faecium (increase in extracellular AK activity).
Setting [4] is: 384-well format, cutoff for positive-scoring molecules 3-fold increase, read-out: AK-based Prestwick Library Screening Results, S. aureus (increase in extracellular AK activity).
[5] abbreviates: 384-well format, cutoff for positive-scoring molecules 3-fold increase, read-out: AK-based Prestwick Library Screening Results, K. pneumoniae (increase in extracellular AK activity).
Setting [6] is: 384-well format, cutoff for positive-scoring molecules 3-fold increase, read-out: AK-based Prestwick Library Screening Results, A. baumannii (increase in extracellular AK activity).
The mark [7] stands for this setting: 384-well format, cutoff for positive-scoring molecules 3-fold increase, read-out: AK-based Prestwick Library Screening Results, P. aeruginosa (increase in extracellular AK activity).
Where [8] appears, read: 384-well format, cutoff for positive-scoring molecules 3-fold increase, read-out: AK-based Prestwick Library Screening Results, E. cloacae (increase in extracellular AK activity).
Setting [9] is: 384-well format, cutoff for positive-scoring molecules 3-fold increase, read-out: AK-based Prestwick Library Screening Results, E. coli (increase in extracellular AK activity).
[10] abbreviates: planktonic E. faecium, positive cutoff 3-fold increase, read-out: AK-based Prestwick library screening result, E. faecium (fold increase in extracellular AK activity).
Setting [11] is: planktonic S. aureus, positive cutoff 3-fold increase, read-out: AK-based Prestwick library screening result, S. aureus (fold increase in extracellular AK activity).
[12] abbreviates: planktonic K. pneumoniae, positive cutoff 3-fold increase, read-out: AK-based Prestwick library screening result, K. pneumoniae (fold increase in extracellular AK activity).
[13] abbreviates: planktonic A. baumannii, positive cutoff 3-fold increase, read-out: AK-based Prestwick library screening result, A. baumannii (fold increase in extracellular AK activity).
Setting [14] is: planktonic P. aeruginosa, positive cutoff 3-fold increase, read-out: AK-based Prestwick library screening result, P. aeruginosa (fold increase in extracellular AK activity).
Where [15] appears, read: planktonic E. cloacae, positive cutoff 3-fold increase, read-out: AK-based Prestwick library screening result, E. cloacae (fold increase in extracellular AK activity).
[16] abbreviates: planktonic E. coli, positive cutoff 3-fold increase, read-out: AK-based Prestwick library screening result, E. coli (fold increase in extracellular AK activity).

Counter-ions that a name gives are not always drawn. Like-named read-outs stand apart in the source and are kept apart here.

As to `NC(N)=Nc1nc(CSCCC(N)=NS(N)(=O)=O)cs1` [Famotidine], the fold induction at 50 µM in the test with E. faecium (setting [3]) stood at 0.8; in test [1] (setting [4]), 0.5; in the test on K. pneumoniae (setting [5]) it was 0.8; in test [2] (setting [6]), 0.8; in the test with P. aeruginosa (setting [7]), 0.8; with E. cloacae (setting [8]), 1. Also, the fold induction at 50 µM in the test on E. coli (setting [9]) is 0.9.

As to `C[N+]1(C)CCOC(O)(c2ccc(-c3ccc(C4(O)C[N+](C)(C)CCO4)cc3)cc2)C1.[Br-].[Br-]` (centres unmarked) [Hemicholinium bromide], the “AK-based Prestwick Library Screening Results, E. faecium (fold increase in extracellular AK activity)” value with E. faecium (planktonic, […]) is 0.9. In test [1] (planktonic, […]), the “AK-based Prestwick Library Screening Results, S. aureus (fold increase in extracellular AK activity)” value was found to be 1.0. For the same compound, the “AK-based Prestwick Library Screening Results, K. pneumoniae (fold increase in extracellular AK activity)” value with K. pneumoniae (planktonic, […]) came out at 1.0. Further, in test [2] (planktonic, […]), the “AK-based Prestwick Library Screening Results, A. baumannii (fold increase in extracellular AK activity)” value is listed as 1.2. In addition, in the test with P. aeruginosa (planktonic, […]), the “AK-based Prestwick Library Screening Results, P. aeruginosa (fold increase in extracellular AK activity)” value worked out at 0.9. In addition, in the test with E. cloacae (planktonic, […]), the “AK-based Prestwick Library Screening Results, E. cloacae (fold increase in extracellular AK activity)” value turned out to be 2.0. The “AK-based Prestwick Library Screening Results, E. coli (fold increase in extracellular AK activity)” value in the test on E. coli (planktonic, […]) is 1.1.

For the compound `Cn1c([N+](=O)[O-])cnc1COC(N)=O` [Ronidazole], the fold induction at 50 µM worked out at 1.1 in the test on E. faecium (setting [10]); 1.3 in test [1] (setting [11]); 1.7 in the test with K. pneumoniae (setting [12]); 1.6 in test [2] (setting [13]); 1 in the test with P. aeruginosa (setting [14]); 1.6 with E. cloacae (setting [15]). Besides, the fold induction at 50 µM with E. coli (setting [16]) was 1.1.

In the case of `C[C@@H]1C[C@H]2[C@@H]3C[C@H](F)C4=CC(=O)C=C[C@]4(C)[C@@]3(Cl)[C@@H](O)C[C@]2(C)[C@H]1C(=O)COC(=O)C(C)(C)C` [Clocortolone pivalate], the fold induction at 50 µM in the test with E. faecium (setting [10]) is 1.1; in test [1] (setting [11]) it was 1.1; in the test on K. pneumoniae (setting [12]) it was 1; in test [2] (setting [13]) it was 1.2; with P. aeruginosa (setting [14]), 1; with E. cloacae (setting [15]), 1.6. The fold induction at 50 µM in the test with E. coli (setting [16]) came out at 1.

In the case of `COC1=CC(=O)O[C@@H](/C=C/c2ccccc2)C1` [Kawain], the fold induction at 50 µM was 1.1 in the test on E. faecium (planktonic E. faecium, 384-well, […], read-out: AK-based Prestwick Library Screening Results: E. faecium (increase in extracellular AK activity)); 1 in test [1] (planktonic S. aureus, 384-well, […], read-out: AK-based Prestwick Library Screening Results: S. aureus (increase in extracellular AK activity)); 1 in the test on K. pneumoniae (planktonic K. pneumoniae, 384-well, […], read-out: AK-based Prestwick Library Screening Results: K. pneumoniae (increase in extracellular AK activity)); 1.2 in test [2] (planktonic A. baumannii, 384-well, […], read-out: AK-based Prestwick Library Screening Results: A. baumannii (increase in extracellular AK activity)); 1 in the test with P. aeruginosa (planktonic P. aeruginosa, 384-well, […], read-out: AK-based Prestwick Library Screening Results: P. aeruginosa (increase in extracellular AK activity)); 1.4 with E. cloacae (planktonic E. cloacae, 384-well, […], read-out: AK-based Prestwick Library Screening Results: E. cloacae (increase in extracellular AK activity)). Moreover, the fold induction at 50 µM in the test with E. coli (planktonic E. coli, 384-well, […], read-out: AK-based Prestwick Library Screening Results: E. coli (increase in extracellular AK activity)) was 1.1.

Consider `CC1(C)S[C@@H]2[C@H](NC(=O)[C@H](N)c3ccc(O)cc3)C(=O)N2[C@H]1C(=O)O` [Amoxicillin], for which the fold induction at 50 µM was determined as 1.4 with E. faecium (planktonic E. faecium, cutoff for positive-scoring molecules 3-fold increase, read-out: AK-based Prestwick Library Screening Results, E. faecium (increase in extracellular AK activity)); 0.4 in test [1] (planktonic S. aureus, cutoff for positive-scoring molecules 3-fold increase, read-out: AK-based Prestwick Library Screening Results, S. aureus (increase in extracellular AK activity)); 0.7 in the test on K. pneumoniae (planktonic K. pneumoniae, cutoff for positive-scoring molecules 3-fold increase, read-out: AK-based Prestwick Library Screening Results, K. pneumoniae (increase in extracellular AK activity)); 1.7 in test [2] (planktonic A. baumannii, cutoff for positive-scoring molecules 3-fold increase, read-out: AK-based Prestwick Library Screening Results, A. baumannii (increase in extracellular AK activity)); 0.7 in the test on P. aeruginosa (planktonic P. aeruginosa, cutoff for positive-scoring molecules 3-fold increase, read-out: AK-based Prestwick Library Screening Results, P. aeruginosa (increase in extracellular AK activity)); 1 in the test with E. cloacae (planktonic E. cloacae, cutoff for positive-scoring molecules 3-fold increase, read-out: AK-based Prestwick Library Screening Results, E. cloacae (increase in extracellular AK activity)). The fold induction at 50 µM in the test on E. coli (planktonic E. coli, cutoff for positive-scoring molecules 3-fold increase, read-out: AK-based Prestwick Library Screening Results, E. coli (increase in extracellular AK activity)) amounted to 10.6.

With `Cc1ncc([N+](=O)[O-])n1CC(O)CCl` (centres unmarked) [Ornidazole], the fold induction at 50 µM with E. faecium (setting [3]) came out at 0.9; in test [1] (setting [4]), 0.5; with K. pneumoniae (setting [5]) it was 0.5; in test [2] (setting [6]), 0.6; in the test with P. aeruginosa (setting [7]), 0.6; in the test with E. cloacae (setting [8]) it was 0.6. Further, the fold induction at 50 µM with E. coli (setting [9]) was found to be 0.6.

As to `C=C1[C@@H]2CC[C@H]3[C@]4(C)C[C@H](O[C@@H]5O[C@H](CO)[C@@H](OS(=O)(=O)O)[C@H](OS(=O)(=O)O)[C@H]5OC(=O)CC(C)C)C[C@@H](C(=O)O)[C@H]4CC[C@]3(C2)[C@@H]1O` [Atractyloside potassium salt], the fold induction at 50 µM in the test with E. faecium (planktonic, […], read-out: AK-based Prestwick Library Screening Results, E. faecium (fold increase in extracellular AK activity)) is 0.9; in test [1] (planktonic, […], read-out: AK-based Prestwick Library Screening Results, S. aureus (fold increase in extracellular AK activity)), 0.7; with K. pneumoniae (planktonic, […], read-out: AK-based Prestwick Library Screening Results, K. pneumoniae (fold increase in extracellular AK activity)), 0.6; in test [2] (planktonic, […], read-out: AK-based Prestwick Library Screening Results, A. baumannii (fold increase in extracellular AK activity)), 0.8; in the test on P. aeruginosa (planktonic, […], read-out: AK-based Prestwick Library Screening Results, P. aeruginosa (fold increase in extracellular AK activity)), 0.6; in the test on E. cloacae (planktonic, […], read-out: AK-based Prestwick Library Screening Results, E. cloacae (fold increase in extracellular AK activity)), 0.8. In addition, in the test with E. coli (planktonic, […], read-out: AK-based Prestwick Library Screening Results, E. coli (fold increase in extracellular AK activity)), the fold induction at 50 µM is 0.7.
